Data: patent US20180042874A1, “METHOD FOR TREATING OSTEOPOROSIS” (China Medical University, priority 2016, published 2018)

Tests used:
JNK = experiment: Western blot of MAPK pathway, phosphorylated JNK; format: cell-based, mouse; settings: 10 μg/ml co-treated with 100 ng/ml RANKL, 0-60 minutes
Protocol: The effect of the compound of formula I on the protein expression of osteoclast MAPKs pathways induced by receptor activator of nuclear factor κB ligand was studied, experiments were performed by using the Western blot method; RAW 264.7 cells were rinsed in ice-cold PBS, cell lysis buffer was added, the components of the buffer solution included: 10 mM 4-(2-hydroxyethyl)-1-piperazineethanesulfonic acid (HEPES), 1.5 mM MgCl2, 0.5 mM dithiothreitol (DTT), 0.5 μg/ml leupeptin and 6.4% Nonidet P-40, reacted on ice for 15 minutes. The cells were scraped off with a spatula, collected into a 1.5 ml centrifuge tube, the cells were thoroughly broken by using a shaker; centrifuged at 12,000 rpm, 4° C. for 10 minutes; supernatant was added into a new 1.5 ml centrifuge tube; boiled with IX sodiumdodecyl sulfate (SDS) sample buffer, followed by electrophoresis using 10 to 12% SDS-PAGE. […] The transfer membrane was rinsed again and the membrane loaded with chemical luminescence reagent ECL was allowed to react with a photosensitive sheet in a darkroom for a suitable period of time, the photosensitive sheet then reacted with the developer. After the photosensitive sheet was exposed to light a band-shaped antibody-binding proteins was observed, quantified by the density of the bands. […]

[1] = test system: osteoclast differentiation induced by receptor activator of nuclear factor κB ligand in RAW 264.7 cells; experiment: Osteoclast differentiation test (tartrate-resistant acid phosphatase staining); format: cell-based, mouse
Description: The present invention used monocyte/macrophage cell line RAW 264.7 from mouse as an experimental model of the osteoclast differentiation system. RAW 264.7 cells differentiated into osteoclasts in an environment containing receptor activator of nuclear factor κB ligand. RAW 264.7 was obtained from a tumor induced by Abelson murine leukemia virus and purchased from the American Type Culture Collection (ATCC; Rockville, Md.). To culture osteoclasts, RAW 264.7 cells were used, cultured in a 24-well plate, the number of cells in each well was 1×10^4 cell/ml and cultured in a medium containing 100 ng/ml of receptor activator of nuclear factor κB ligand or co-treated with different concentrations of the compound of formula I.
In order to simulate physiological functions of the bone, we simulated the in vivo environment and some hormones essential to differentiation were added. The hormone environment suitable for […] cells was simulated for osteoclast differentiation. […] Markers for osteoclast differentiation were evaluated by staining with tartrate-resistant acid phosphatase. […]
Osteoclast formation was detected by quantifying the staining positive rate of tartrate-resistant acid phosphatase (387-A, Sigma-Aldrich, St. Louis, Mo.). […]

[2] = Liver and kidney toxicity in ovariectomized osteoporosis rat model; format: in vivo, Sprague-Dawley (SD) female rats; settings: ovariectomized rats, compared to commercially available drugs
Protocol: Inducing osteoporosis animal models and experimental methods: • 1. 6-month old Sprague-Dawley (SD) female rats were purchased; • 2. These rats were divided into 7 groups, of which Group 1 was given pseudo-surgery, Group 2-7 underwent bilateral ovariectomies; • 3. […] Body weight and bone density were measured weekly, blood was drawn until the 118th day; • 5. Rats were then sacrificed to obtain kidneys, livers and rat tibia; • 6. Data were consolidated and processed. [table]

Q: Which “expression of phosphorylated JNK” value (JNK) does the source give for `CNC(=O)N[C@]1(C)CCC[C@@]2(C)C3CC[C@@]4(C)C[C@]3(CCC21)CC4=O` (single isomer, unassigned; ent-16) [compound of formula I, ent-16-oxobeyeran-19-N-methylureido] here?
A: The value was “decreased”.

Q: And the “osteoclast differentiation over time (TRAP-positive multinucleated cells)” value ([1]; 10 μg/ml co-treated with 100 ng/ml RANKL, 2, 4, 6 days)?
A: Its value is “significant and inhibitory effect”.

Q: And the “level of osteoclast differentiation (TRAP-positive multinucleated cells)” value ([1]; 10 μg/ml co-treated with 100 ng/ml RANKL, 6 days)?
A: Its value is “decrease in the level of osteoclast differentiation”.

Q: And the “cytotoxicity in kidney (blood urea nitrogen, plasma creatinine)” value [2]?
A: The value was “less cytotoxicity in kidney than Zoledronic acid”.

Q: And the “cytotoxicity in liver (alanine aminotransferase)” value [2]?
A: The value was “less cytotoxicity in liver than Proliaor”.
